Results from US8349835B2, “Aromatic ring fused triazine derivatives and uses thereof” (Shenyang Pharmaceutical University, priority 2008, dated 2013).

What follows are compounds tested against VEGFR-2 (Homo sapiens, UniProt P35968) (assay: VEGFR-2 inhibition rate test (kinase assay kit, colorimetric ELISA)). Settings: concentration not given.
Chain of VEGFR-2 (P35968 20-1356): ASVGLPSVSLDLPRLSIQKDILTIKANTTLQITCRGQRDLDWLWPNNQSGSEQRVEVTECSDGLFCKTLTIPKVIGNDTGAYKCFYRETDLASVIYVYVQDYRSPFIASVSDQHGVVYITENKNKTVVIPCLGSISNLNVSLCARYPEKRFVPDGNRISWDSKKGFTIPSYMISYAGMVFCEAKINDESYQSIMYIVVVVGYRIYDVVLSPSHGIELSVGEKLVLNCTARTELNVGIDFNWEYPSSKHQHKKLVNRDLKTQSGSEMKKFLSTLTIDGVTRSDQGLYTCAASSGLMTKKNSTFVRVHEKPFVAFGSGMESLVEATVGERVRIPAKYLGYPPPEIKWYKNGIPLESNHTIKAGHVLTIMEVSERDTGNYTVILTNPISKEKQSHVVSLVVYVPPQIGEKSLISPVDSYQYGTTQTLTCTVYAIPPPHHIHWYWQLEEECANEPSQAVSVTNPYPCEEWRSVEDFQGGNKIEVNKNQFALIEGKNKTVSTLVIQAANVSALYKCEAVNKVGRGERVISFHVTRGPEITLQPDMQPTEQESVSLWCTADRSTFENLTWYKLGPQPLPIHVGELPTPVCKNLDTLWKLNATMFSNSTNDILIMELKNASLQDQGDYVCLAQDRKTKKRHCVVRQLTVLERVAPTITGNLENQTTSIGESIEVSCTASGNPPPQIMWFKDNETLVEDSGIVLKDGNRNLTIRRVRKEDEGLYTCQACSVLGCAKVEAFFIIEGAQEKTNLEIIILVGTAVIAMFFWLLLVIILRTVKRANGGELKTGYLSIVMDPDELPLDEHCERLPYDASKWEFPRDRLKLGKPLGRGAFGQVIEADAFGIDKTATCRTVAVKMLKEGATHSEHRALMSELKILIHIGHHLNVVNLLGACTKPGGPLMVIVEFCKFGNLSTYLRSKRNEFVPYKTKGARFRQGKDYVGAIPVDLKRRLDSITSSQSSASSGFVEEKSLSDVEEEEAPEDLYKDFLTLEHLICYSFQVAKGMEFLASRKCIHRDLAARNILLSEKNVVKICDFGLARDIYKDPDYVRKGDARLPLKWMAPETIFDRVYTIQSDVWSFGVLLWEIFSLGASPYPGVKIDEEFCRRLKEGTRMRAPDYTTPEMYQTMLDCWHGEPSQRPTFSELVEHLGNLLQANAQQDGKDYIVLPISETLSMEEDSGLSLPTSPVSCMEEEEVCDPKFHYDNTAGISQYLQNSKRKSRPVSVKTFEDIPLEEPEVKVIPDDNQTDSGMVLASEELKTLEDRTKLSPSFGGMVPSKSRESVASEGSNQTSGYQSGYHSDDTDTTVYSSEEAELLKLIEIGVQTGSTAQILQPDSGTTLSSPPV
In the case of `Fc1ccc(Nc2nnnc3ccccc23)cc1Cl` [Example 1, 4-(3-chloro-4-fluoroanilino)-benzo[d][1,2,3]triazine], the “Kinase inhibition rate (VEGFR-2)” value is reported as 3.47. With `Fc1ccc(Nc2nnnc3ccccc23)cc1` [Example 2, 4-(4-fluoroanilino)-benzo[d][1,2,3]triazine] the “Kinase inhibition rate (VEGFR-2)” value was −22.99. For `Fc1cc(F)cc(Nc2nnnc3ccccc23)c1` [Example 5, 4-(3,5-difluoroanilino)-benzo[d][1,2,3]triazine], the “Kinase inhibition rate (VEGFR-2)” value was −5.34. `Fc1cc(Nc2nnnc3ccccc23)ccc1Br` [Example 8, 4-(3-fluoro-4-bromoanilino)-benzo[d][1,2,3]triazine] was tested, and the “Kinase inhibition rate (VEGFR-2)” value was −6.95. `Fc1ccc(Nc2nnnc3ccccc23)cc1C(F)(F)F` [Example 9, 4-(3-trifluoromethyl-4-fluoroanilino)-benzo[d][1,2,3]triazine] was tested, and the “Kinase inhibition rate (VEGFR-2)” value was 1.60. In the case of `Clc1cc(Cl)cc(Nc2nnnc3ccccc23)c1` [Example 10, 4-(3,5-dichloroanilino)-1,2,3-benzotriazine], the “Kinase inhibition rate (VEGFR-2)” value is reported as −2.67. For `CCCCOc1cc2nnnc(Nc3ccccc3)c2cc1OC` [Example 11, 6-methoxy-7-butoxy-4-anilino-benzo[d][1,2,3]triazine], the “Kinase inhibition rate (VEGFR-2)” value was −4.27. `CCCCOc1cc2nnnc(Nc3ccc(Br)c(F)c3)c2cc1OC` [Example 12, 6-methoxy-7-n-butoxy-4-(3-fluoro-4-bromoanilino)-benzo[d][1,2,3]triazine] was tested, and the “Kinase inhibition rate (VEGFR-2)” value was 9.09. For `CCCCOc1cc2nnnc(Nc3cc(F)cc(F)c3)c2cc1OC` [Example 14, 6-methoxy-7-n-butoxy-4-(3,5-difluoroanilino)-benzo[d][1,2,3]triazine], the “Kinase inhibition rate (VEGFR-2)” value was −0.80. `CCCCOc1cc2nnnc(Nc3ccc(Cl)cc3)c2cc1OC` [Example 16, 6-methoxy-7-n-butoxy-4-(4-chloroanilino)-benzo[d][1,2,3]triazine] was tested, and the “Kinase inhibition rate (VEGFR-2)” value was −12.03. With `CCCCOc1cc2nnnc(Nc3ccc(F)cc3)c2cc1OC` [Example 26, 6-methoxy-7-n-butoxy-4-(4-fluoroanilino)-benzo[d][1,2,3]triazine] the “Kinase inhibition rate (VEGFR-2)” value was 9.89. For `CCCCCOc1cc2nnnc(Nc3ccccc3)c2cc1OC` [Example 44, 6-methoxy-7-pentyloxy-4-anilino-benzo[d][1,2,3]triazine], the “Kinase inhibition rate (VEGFR-2)” value was −22.45. In the case of `CCCCCOc1cc2nnnc(Nc3cc(Cl)cc(Cl)c3)c2cc1OC` [Example 46, 6-methoxy-7-pentyloxy-4-(3,5-dichloroanilino)-benzo[d][1,2,3]triazine], the “Kinase inhibition rate (VEGFR-2)” value is reported as −0.53. `CCCCCOc1cc2nnnc(Nc3cccc(OC(F)(F)F)c3)c2cc1OC` [Example 52, 6-methoxy-7-pentyloxy-4-(3-trifluoromethoxyanilino)-benzo[d][1,2,3]triazine] was tested, and the “Kinase inhibition rate (VEGFR-2)” value was 2.13. `CCCCCOc1cc2nnnc(Nc3cccc(Cl)c3)c2cc1OC` [Example 54, 6-methoxy-7-pentyloxy-4-(3-chloroanilino)-benzo[d][1,2,3]triazine] was tested, and the “Kinase inhibition rate (VEGFR-2)” value was 3.20. For `CCCCCOc1cc2nnnc(Nc3ccccc3F)c2cc1OC` [Example 57, 6-methoxy-7-pentyloxy-4-(2-fluoroanilino)-benzo[d][1,2,3]triazine], the “Kinase inhibition rate (VEGFR-2)” value was 10.42. In the case of `CCCCCOc1cc2nnnc(Nc3cccc(Br)c3)c2cc1OC` [Example 58, 6-methoxy-7-pentyloxy-4-(3-bromoanilino)-benzo[d][1,2,3]triazine], the “Kinase inhibition rate (VEGFR-2)” value is reported as −5.61. In the case of `CCCCCOc1cc2nnnc(Nc3ccc(C)cc3)c2cc1OC` [Example 60, 6-methoxy-7-pentyloxy-4-(4-methylanilino)-benzo[d][1,2,3]triazine], the “Kinase inhibition rate (VEGFR-2)” value is reported as 7.75. `COc1cc2c(Nc3cccc(Cl)c3)nnnc2cc1OCCCCl` [Example 71, 6-methoxy-7-chloropropoxy-4-(3-chloroanilino)-benzo[d][1,2,3]triazine] was tested, and the “Kinase inhibition rate (VEGFR-2)” value was 21.14.
